Assay results from patent US6489307B1, “Antisense compositions targeted to β1-adrenoceptor-specific mRNA and methods of use” (University of Florida, priority 1998, dated 2002).

Legend:
SHRs [1] = assay: Blood pressure of SHRs by tail cuff; type: in vivo, rat (SHR); settings: for reduction of blood pressure throughout the treatment period: repeated treatment for more than 2 months; for Duration (Range) / Range of Reduction / Maximum Reduction in Blood Pressure: single i.v. 0.5 mg/kg
Method: (§1) Rats were warmed for 20 to min. in cages on heating pads. The temperature was controlled at 35° C. to 37° C. Then the rats were placed in a plastic restrainer kept at 37° C. A pneumatic pulse sensor was attached to the tail. After cuff inflation, SBP was determined as the first pulsatile oscillation on the descending side of the pressure curve. HR was determined by manual counting of pulse numbers per unit time. BP and HR were recorded by a Narco physiograph. Data values of each rat were taken as an average of at least 4 stable readings. Baseline was determined by averaging 3 days of measurements before antisense administration.
Blood pressure was measured by the tail-cuff method as described above. Systolic blood pressure (SBP) was determined as the first pulsatile oscillation on the descending side of the pressure curve. Data values of each rat were taken as an average of ≧4 stable readings. Baseline was determined by averaging 3 days of measurements before antisense administration.
as §1, with “for 20-30 min” for “for 20 to min.”, “at 35-37°” for “at 35° C. to 37°”, “Then” for “Then the”, “of” for “of the”, “least four” for “least 4”, “averaging three” for “averaging 3”

β1-AR [2] = assay: β-adrenergic receptor binding assay on renal cortex membranes; type: in vivo, rat (SHR); settings: for decrease in Bmax of β1-ARs in renal cortex: charge ratio 2
Method: Four days after intravenous injection of saline (n=6) or 0.5 mg/kg inverted ODN (n=6) or 4, 10, 18 and 40 days after injection of 0.5 mg/kg β1-AS-ODN (n=24), animals were euthanized, and membranes were prepared from the renal cortex of the left kidneys as previously described (Baker and Pitha, 1982). For saturation studies, 100 μg membrane protein was incubated in triplicate with 6 concentrations of [^125](−)iodocyanopindolol (ICYP, NEN Life Science, 6.25 to 100 pmol/L) in a total volume of 250 μL containing 50 mmol/L Tris-HCl (pH 7.4) and 5 mmol/L MgCl2 at 36° C. for 60 min. The nonspecific and β2-adrenergic receptor binding levels were determined in the presence of 1 μmol/L (±)-alprenolol and […] CGP20712A (RBI), respectively. Then the reaction mixture was passed through a Whatman GF/B glass fiber filter with a Brandel harvester, and the bound radioactivity was counted for 1 min.

MDA (lipid peroxidation) = assay: MDA levels in myocardium after ischemia-reperfusion; type: in vivo, Sprague-Dawley rats; settings: pretreatment before ischemia-reperfusion; vs saline
Method: Malondialdehyde (MDA) levels in myocardium were measured in duplicate by a modification of the method of Ohkawa et al., (1979). Briefly, the ventricular tissues were homogenized. The assay mixture consisted of 0.1 ml of the tissue homogenate, 0.4 ml of 0.9% NaCl, 0.5 ml of 3% sodium dodecylsulfate, 3 ml of TBA (thiobarbituric acid reagent, containing equal parts of 0.8% aqueous thiobarbituric acid and acetic acid) and was heated for 75 min at 95° C. Thereafter, 1 ml cold 0.9% NaCl was added to the mixture, which was cooled and extracted with 5 ml n-butanol. After centrifugation at 3,000 rpm for 15 min, the butanol phase was assayed spectrophotometrically at 532 nm. Tetramethoxypropane (in amounts of 0, 0.1, 0.2, 0.4, 0.8, 1.0 nmole) served as external standard. MDA levels in myocardium were expressed in μmol/g tissue.

β1-AR [3] = assay: β-AR density in myocardium after ischemia-reperfusion (binding assay); type: in vivo, Sprague-Dawley rats
Method: (§2) Membrane protein was prepared from left ventricles as previously described (Baker and Pitha, 1982). For saturation studies, 100 μg membrane protein was incubated in triplicate with ^125I-(−)iodocyanopindolol (I-CYP, NEN Life Science, 6.25-100 pM) in a total volume of 250 μl containing 50 mM Tris-HCl (pH 7.4), 5 mM MgCl2 at 36° C. for 60 min. The nonspecific and β2-adrenoceptor binding were determined in the presence of 1 μM (±)-alprenolol and […] (RBI), respectively. Then the reaction mixture was passed through Whatman GF/B glass filter using Brandel harvester and the radioactivity was counted for one min.

β1-AR protein = assay: Western blot of β1-AR protein in myocardium; type: in vivo, Sprague-Dawley rats; settings: Western analysis
Method: Myocardial tissues were homogenized and lysed in boiling lysis buffer (1% SDS, 0.1% Triton X-100®, and 10 mmol/L Tris-HCl, pH 7.4) and centrifuged at 10,000 RPM for 30 minutes at 4° C. The lysate protein from myocardial tissues (20 μg/lane) was separated by 8% SDS-PAGE using a Bio-Rad Mini-Protean cell, transferred to nitrocellulose membrane (Amersham). After incubation in blocking solution (4% non-fat milk, Sigma), membranes were incubated with 1:1000 dilation primary antibody (polycolonal antibody to β1-AR, Santa Cruz Biotechnology) for overnight at 4° C. Membranes were washed and incubated with 1:2000 dilution second antibody (Amersham) for one hr. The membranes were detected with the ECL system, as described previously (Yang et al, 1998; Li et al., 1999).

[4] = Liver transaminases in plasma after repeated injections; type: in vivo, rat (SHR); settings: for ALT / AST: after repeated administration
Method: (§3) Safety profiles including liver transaminases, hematology, immune response and tissue pathology were investigated during three repeated injections of β1-AS-ODNs for extended periods of time.
Alanine aminotransferase (ALT) and aspartate aminotransferase (AST) are routinely used as a clinical index for liver function. Their levels increase substantially upon liver damage. SHR were treated with three repeated injections of β1-AS-ODN.

β2-AR = assay: β-AR density in myocardium after ischemia-reperfusion (binding assay); design: species or system Sprague-Dawley rats; settings: rat, in vivo
Method: as §2

[5] = Immune response (gel immunodiffusion, C-reactive protein); type: in vivo, rat (SHR); settings: after repeated administration
Excerpt: as §3
C-reactive protein (CRP), a clinical index for immune reaction, was found negative in all animals.

SHRs [6] = settings: Zhang et al., 1999; without causing bradycardia; cited from earlier work
[7] = 0.5 mg/kg i.v., charge ratio 1.5
[8] = 0.5 mg/kg i.v., charge ratio 2.5
[9] = 0.5 mg/kg i.v., charge ratio 3.5
[10] = single 1 mg/kg, liposomes DNA/lipid 1:0.5

5′-AGCCGTACCCGCGCC-3′ (phosphorothioate backbone, further chemistry not given here) [Inverted ODN, 15-mer inverted ODN control, reference compound]
effect on SBP (SHRs [1]; 1 mg/kg with liposomes): No effect
reduction of blood pressure throughout the treatment period (SHRs [1]): no change
effect on either β-AR subtype in renal cortex (β1-AR [2]; 0.5 mg/kg i.v., 4 days): no effect
increase in MDA levels in the myocardium (MDA (lipid peroxidation)): did not affect
effect on β1-AR density in ischemic-reperfused myocardium (β1-AR [3]; rat, in vivo): no effect
ischemia-reperfusion-mediated increase in β1-AR protein expression (β1-AR protein): no effect
ALT [4]: 30.5 ± 3.8 unit/ml
AST [4]: 83.0 ± 8.3 unit/ml

5′-CCGCGCCCATGCCGA-3′ (phosphorothioate backbone, further chemistry not given here) [β1-AS-ODN, 15-mer antisense ODN targeted to the AUG start codon of rat β1-AR mRNA]
duration of SBP reduction (SHRs [1]; 0.5 mg/kg i.v., charge ratio 0.5): 7 to 8 days
reduction of SBP (SHRs [1]; 0.5 mg/kg i.v., charge ratio 0.5, representative experiment): up to 33 mm Hg
duration of the hypotensive impact (SHRs [1]; [7]): 20 days
maximum drop in SBP (SHRs [1]; [7]): ≈ 35 mm Hg
duration of the hypotensive impact (SHRs [1]; [8]): 33 days
maximum drop in SBP (SHRs [1]; [8]): ≈ 35 mm Hg
duration of the hypotensive impact (SHRs [1]; [9]): 33 days
maximum drop in SBP (SHRs [1]; [9]): ≈ 25 mm Hg
effect on SBP (SHRs [1]; 0.5 mg/kg i.v., β1-AS-ODN alone (ratio 0)): did not change SBP
reduction of blood pressure throughout the treatment period (SHRs [1]): 20-30 mmHg
duration of diminished SBP (SHRs [1]; [10]): 8 days
maximum drop in SBP (SHRs [1]; [10]): 38±5 mm Hg
Duration (Range) (SHRs [1]; charge ratio 0.5): 7 to 8 days
Range of Reduction (SHRs [1]; charge ratio 0.5): 24-38 mm Hg
Duration (Range) (SHRs [1]; charge ratio 1.5): 18 to 20 days
Range of Reduction (SHRs [1]; charge ratio 1.5): 18-35 mm Hg
Duration (Range) (SHRs [1]; charge ratio 2.5): 20 to 33 days
Range of Reduction (SHRs [1]; charge ratio 2.5): 20-34 mm Hg
Duration (Range) (SHRs [1]; charge ratio 3.5): 20 to 33 days
Range of Reduction (SHRs [1]; charge ratio 3.5): 15-24 mm Hg
Maximum Reduction in Blood Pressure (SHRs [1]; charge ratio liposome/ODN 0): 2 mm Hg
Maximum Reduction in Blood Pressure (SHRs [1]; charge ratio liposome/ODN 0.5): 35-38 mm Hg
Maximum Reduction in Blood Pressure (SHRs [1]; charge ratio liposome/ODN 1.5): 28-35 mm Hg
Maximum Reduction in Blood Pressure (SHRs [1]; charge ratio liposome/ODN 2.5): 30-34 mm Hg
Maximum Reduction in Blood Pressure (SHRs [1]; charge ratio liposome/ODN 3.5): 20-24 mm Hg
hypotensive effect (SHRs [1]; single i.v. injection with cationic liposomes, summary): 30 to 35 mm Hg
affinity of either subtype in renal cortex (β1-AR [2]; 0.5 mg/kg i.v.): not affected
decrease in Bmax of β1-ARs in renal cortex (β1-AR [2]; 0.5 mg/kg i.v., day 4): 35%
decrease in Bmax of β1-ARs in renal cortex (β1-AR [2]; 0.5 mg/kg i.v., day 10): 29%
decrease in Bmax of β1-ARs in renal cortex (β1-AR [2]; 0.5 mg/kg i.v., day 18): 23%
Bmax of β1-ARs in renal cortex (β1-AR [2]; 0.5 mg/kg i.v., day 40): completely restored
duration of reduction of β1-AR levels in renal cortex (β1-AR [2]; summary statement): 18 days
reduction of β1-AR levels in renal cortex (β1-AR [2]; summary statement): ≈ 30%
increase in MDA levels in the myocardium (MDA (lipid peroxidation)): attenuated the increase
β1-AR density (Bmax) in ischemic-reperfused myocardium (β1-AR [3]; vs 28.7±5.4 in saline-treated rat hearts): 15.9 ± 1.3 fmol/mg
β2-AR density in ischemic-reperfused myocardium (β2-AR): no change
ischemia-reperfusion-mediated increase in β1-AR protein expression (β1-AR protein): abolished
plasma concentrations of ALT and AST vs control groups ([4]; after each of three repeated injections): no significant difference
ALT [4]: 25.7 ± 1.1 unit/ml
AST [4]: 74.0 ± 3.7 unit/ml
C-Reactive Protein [5]: negative
Antibody to ODN ([5]; gel immunodiffusion): no detectable antibody
maximum drop in blood pressure (SHRs [6]): 38 mmHg
